# Reference: patent US6197774A, “Pyrimidine derivative” (Otsuka Pharmaceutical Co., Ltd., priority 1997, dated 2001)
# How the values were obtained:
# [1] = MTT assay, index of toxicity for A 549 cells; format: cell-based; conditions: human, a549 cells, control 100.0, read-out: Ratio of optical absorbance
# Experimental: Test was conducted in accordance with the method as described in J. Immunol. Methods, Vol. 94, pp. 57-68, (1986). Cell strain RAW 264.7 derived from the macrophage of mouse was incubated similarly as in the method of Test Example 1(1). After that, MTT reagent (5 mg/ml) in 1/10 amount of the culture medium was added to the cells, and incubated for 4 hours. The supernatant of culture medium was taken off, then the cells were collected by using 1% SDS solution and the optical absorbance at 570-630 nm of the SDS solution was measured.
# (§1) Cell strain A 549 (ATCC) derived from human alveolar epithelium cells was placed on each one of the wells on a microplate having 24-wells so as to put the cells in an amount of 3×10^5 cells/U (well). The cells were incubated for 24 hours in F-12 Nutrient Mixture culture medium (mfd. by GIBCO) to which 10% of equine serum, 100 U/ml of penicillin (mfd. by Dainippon Pharmaceutical Co., Ltd.) and 100 μg/ml of streptomycin (mfd. by Dainippon Pharmaceutical Co., Ltd.) were added.
# (§2) On the other hand, the test culture medium, containing the test compound of Example 1 was prepared similarly as in the reference culture medium, except adding the test compound (1×10^-5, 1×10^-6 and 1×10^-7 M) dissolved in dimethyl sulfoxide (DMSO) at the same time of inducers-addition.
# (§3) The concentration of IL-8 formed in the supernatant of each one of the culture media after 24-hour incubation was measured by IL-8 ELISA Kit Human (mfd. by genzyme). Further, MTT assay was conducted by the similar method as described in Text Example 2 to determine the index of toxicity for cells.
# late asthmatic response = test: Model experiment of asthma in guinea pigs (inhibition of late asthmatic response); format: in vivo, guinea pig; conditions: 10 mg/Kg orally 30 minutes before antigen; 6 animals; control 112 ± 17.8
# Experimental: [Model experiment of asthma in guinea pigs. (Inhibition of late asthmatic response)]
# Hartley strain female guinea pigs (SLC) having the body weight of about 350 g were used and 50 mg/Kg of cyclophosphamide (mfd. by Sigma Chemical Co.) was injected intraperitoneally. 2 Days after this pretreatment by injection, 1 mg of egg albumin (mfd. by Sigma Chemical Co.) and 100 mg of aluminum hydroxide (Wako Pure Chemical Industries Co., Ltd.) were injected intraperitoneally for sensitization. 3 Weeks after the sensitization, 10 μg of egg albumin and 100 mg of aluminum hydroxide were injected intraperitoneally for booster sensitization. 6 Weeks after the primary sensitization, asthma attach was induced by inhalation and exposure to egg albumin (4 mg/ml) by using a nebulizer (NE-U12: mfd. by Omron Corp.). The asthma reaction was determined by use of a body-plethysmography (using system developed by Uchida lecturer in internal department for respiratory organs at Tsukuba University; air-resist tube, respiratory amplifier and differential pressure transducer (mfd. by Nihon Koden); and osciloscope (mfd. by Iwasaki Tsushin)), so as to determine a […] of specific airway conductance (sGaw) under the condition without anesthesia. The sGaw value just before the administration of test comopound was measured and the value is referred to as 100. Test compound was suspended in 1% HPMC (hydroxymethylpropylcellulose mfd. by Shinetsu Chemical), and was administered orally 30 minutes before the exposure with the antigen. Then, sGaw value was measured in each points until 7 hours after the exposure with the antigen.
# [2] = tested on: formation of IL-8 in cell strain A 549; test: Activity for inhibiting the formation of IL-8 in vitro (A 549 cells, ELISA); format: cell-based; conditions: Homo sapiens, A549, control 100.0, 24 hours, read-out: Ratio of formed amount of IL-8
# Experimental: [Evaluation test of activity for inhibiting the formation of IL-8 in vitro]
# Pyrimidine derivative obtained in Example 1 was used as test comppound.
# as §1
# Next, the equine serum was removed from the culture medium, and the reference culture medium as control was prepared by adding inducers of TNF-α (mfd. by genzyme), IL-1β (mfd. by genzyme) and IFN-γ (mfd. by genzyme) to the culture medium, so as to induce the formation of IL-8.
# as §2, §3
smiles,measurement,setting,value
"COCc1cc(=O)n2ncc(-c3ccc(Sc4ccccc4)cc3)c2[nH]1 [Example 1, 4,7-dihydro-5-methoxymethyl-7-oxo-3-(4-phenylthiophenyl)pyrazolo[1,5-a]pyrimidine]","viability at 24 h, 10 µM",[1]; 1 × 10^-5 M,126%
same,"viability at 24 h, 1 µM",[1]; 1 × 10^-6 M,98.1%
same,"viability at 24 h, 0.1 µM",[1]; 1 × 10^-7 M,108%
same,AUC (4-7 hours) of sGaw reaction,late asthmatic response,32.8 ± 9.2
same,activity at 10 µM,[2]; 1 × 10^-5 M,13.4%
same,activity at 1 µM,[2]; 1 × 10^-6 M,52.6%
same,activity at 0.1 µM,[2]; 1 × 10^-7 M,64.5%
